Patent US20060276478A1, “Pyrazolopyrimidines” (priority 2003, published 2006)
Structures can show the parent of a compound that is named as a salt.

assay: logP determination by HPLC (EEC directive 79/831 Annex V. A8); type: physicochemical; details: HPLC (gradient, acetonitrile/0.1% aqueous phosphoric acid), gradient method
Procedure: logP values are determined in accordance with EEC directive 79/831 Annex V. A8 by HPLC (gradient method, acetonitrile/0.1% aqueous phosphoric acid). Preparation of Starting Materials

Structure (SMILES) | chromatographic logP
CC(Nc1c(-c2ccc(F)cc2Cl)c(Cl)nc2c(C(=N)N)cnn12)C(C)(C)C (single isomer, unassigned) [Example 3, 3-iminoamide-5-chloro-6-(2-chloro-4-fluorophenyl)-7-(3,3-dimethylbut-2-ylamino)pyrazolo[1,5-a]pyrimidine hydrochloride] | 2.72
CC(Nc1c(-c2c(F)cccc2Cl)c(Cl)nc2c(C(N)=O)cnn12)C(C)(C)C (stereo not shown) [Example 1, 3-amido-5-chloro-6-(2-chloro-6-fluorophenyl)-7-(3,3-dimethylbut-2-ylamino)pyrazolo[1,5-a]pyrimidine] | 3.62
CC(Nc1c(-c2ccc(F)cc2Cl)c(Cl)nc2c(C(N)=NO)cnn12)C(C)(C)C (stereo not shown) [Example 2, 3-hydroximinoamido-5-chloro-6-(2-chloro-4-fluorophenyl)-7-(3,3-dimethylbut-2-ylamino)pyrazolo[1,5-a]pyrimidine] | 2.55
CC(Nc1c(-c2c(F)cccc2Cl)c(Cl)nc2c(C#N)cnn12)C(C)(C)C (stereo not shown) [Example 36, 3-cyano-5-chloro-6-(2-chloro-6-fluorophenyl)-7-(3,3-dimethylbut-2-ylamino)pyrazolo[1,5-a]pyrimidine] | 4.59
CC(Nc1c(-c2ccc(F)cc2Cl)c(Cl)nc2c(C#N)cnn12)C(C)(C)C (stereo not shown) [Example 37] | 4.78
N#Cc1cnn2c(O)c(-c3c(F)cccc3Cl)c(O)nc12 [Example 39] | 0.19
N#Cc1cnn2c(Cl)c(-c3ccc(F)cc3Cl)c(Cl)nc12 [Example 40, 3-cyano-5,7-dichloro-6-(2-chloro-4-fluorophenyl)pyrazolo[1,5-a]pyrimidine] | 3.49
N#Cc1cnn2c(Cl)c(-c3c(F)cccc3Cl)c(Cl)nc12 [Example 41] | 3.31

same assay, conditions: gradient method, acetonitrile/0.1% aqueous phosphoric acid

Structure (SMILES) | chromatographic logP
CC(Nc1c(-c2ccc(F)cc2Cl)c(Cl)nc2c(C=NNc3ccc([N+](=O)[O-])cc3[N+](=O)[O-])cnn12)C(C)(C)C (stereo not shown) [Example 5, 3-(2,4-dinitriophenylhydraziminomethyl)-5-chloro-6-(2-chloro-4-fluorophenyl)-7-(3,3-dimethylbut-2-ylamino)pyrazolo[1,5-a]pyrimidine] | 6.28

same assay, conditions: gradient method, acetonitrile/0.1% aqueous phosphoric acid, hydrochloride

Structure (SMILES) | logP
CC(Nc1c(-c2ccc(F)cc2Cl)c(Cl)nc2c(C(=N)N)cnn12)C(C)(C)C (single isomer, unassigned) [Example 4, hydrochloride] | 2.58
